Data set [1] concerns unresectable or metastatic melanoma. The following applies: Phase 3 trial, P<0.001 pembrolizumab vs ipilimumab; cited from earlier work.
Data set [2] relates to murine models of melanoma, renal cell carcinoma, and ovarian cancer. As to conditions: cited from earlier work.
The test system of data set [3] is pancreatic adenocarcinoma. The following applies: cited from earlier work.
Data set [4] is described as follows: Solubility of X4P-001 by pH and in water. The data set is classed as physicochemical. As to conditions: for solubility: aqueous buffer.
The next data set is described as follows: in vivo. As to conditions: terminal half-life. The protocol: In certain embodiments, the dosage composition may be provided twice a day in divided dosage, approximately 12 hours apart. In other embodiments, the dosage composition may be provided once daily. […] Dosage for oral administration may be from about 100 mg to about 1200 mg once or twice per day.

For data set [5] the following is noted: Phase 1 and 2a trials; suggests high tissue penetrance; cited from earlier work.
Data set [6] has as its system circulating white blood cells (WBCs). As to conditions: Phase 1 and 2a trials, oral administration; cited from earlier work.

Converted amounts (≈) assume the structure as drawn. A value given as a limit tells only on which side of the number the result lay.

The solubility is how much of the substance goes into solution per volume. Read a low solubility as a poorly soluble substance. Broadly, the half-life is the time in which the quantity being followed falls by half. Higher therefore signals slow loss.

As to “Pembrolizumab: humanized IgG4 kappa monoclonal antibody that blocks the interaction between PD-1 and its ligands, PD-L1 and PD-L2”, the objective response rate in data set [1] is recorded as 33%.

Turning to `c1cc(CN2CCCNCCNCCCNCC2)ccc1CN1CCCNCCNCCCNCC1` [Plerixafor], the “anti-tumor activity, including decreased metastasis and increased overall survival” value in data set [2] is reported as “significant anti-tumor activity”. In addition, in data set [3] (CXCR4 antagonist alone), the “T-cell accumulation among the cancer cells” value is “induced rapid T-cell accumulation”. In addition, the tumor growth result in data set [3] (in combination with anti-PD-L1) is reported as “synergistically decreased tumor growth”.

Turning to ipilimumab: anti-CTLA-4 antibody, the objective response rate in data set [1] is 12%.

As for `NCCCCN(Cc1nc2ccccc2[nH]1)[C@H]1CCCc2cccnc21` [X4P-001], the solubility in data set [4] (pH 9.0 (sparingly soluble)) was 10.7 mg/mL (≈ 30.6 mM); in data set [4] (pH 10.0 (slightly soluble)), 2 mg/mL (≈ 5.72 mM); in data set [4] (pH range 3.0 to 8.0 (freely soluble)) it was over 100 mg/mL. The solubility in water result in data set [4] (water) is given as “only slightly soluble”. The half-life in the data set “in vivo” (approximate value) was about 14.5 h; in the data set “in vivo” (range), 12 to 24 h. The “volume of distribution (VL)” value in data set [5] is “high”. The “pharmacodynamic activity: changes in circulating white blood cells (WBCs)” value in data set [6] was “dose- and concentration-related changes”. For the same molecule, the “anti-tumor activity, including decreased metastasis and increased overall survival” value in data set [2] is “significant anti-tumor activity”.
